In patent publication US8759481B2, “Peptide vaccines for cancers expressing tumor-associated antigens” (Oncotherapy Science, Inc., priority 2007, dated 2014):
Entries after “also recorded” stand apart in the source; their conditions may differ. Ends that are not written are not given here.

Tests used:
Type in all cases: cell-based, human
peptide-pulsed T2 cells [1] = assay: IFN-gamma ELISPOT assay (positive wells); conditions: HLA-A02 peptides; as compared to the control
Outline: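 CD8+ T cells from HLA-A*2402 and/or HLA-A*0201 donors were stimulated 1:20 with autologous monocyte-derived DCs pulsed with 20 µg/ml peptide plus β2-microglobulin, in IL-7, with IL-2 added, restimulated on days 7 and 14. On day 21, IFN-γ ELISPOT against peptide-pulsed T2 or A24-LCL cells (1×10^4/well) scored wells as positive, with CTL lines confirmed by ELISA.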

peptide-pulsed T2 cells [2] = assay: CTL line establishment, IFN-gamma ELISA; conditions: HLA-A02 peptides; vs target without peptide pulse
Outline: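 CTLs expanded with MMC-inactivated B-lymphoblastoid lines, 40 ng/ml anti-CD3 and IL-2 (120 IU/ml day 1, then 30 IU/ml on days 5, 8, 11). Peptide-pulsed T2 or A24-LCL stimulators (1×10^4/well) incubated with cultured wells or limiting-dilution clones as responders; IFN-gamma detected by ELISPOT (positive wells) and ELISA (established CTL lines).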

[3] = test system: COS7, Hek293 and 293T transfected with full length URLC10 gene and HLA-A*0201; assay: Specific CTL activity against transfected target cells; conditions: vs control transfectants; listed as URLC10-A02-10-211
Protocol: Briefly, peptide-pulsed A24-LCL or T2 cell (1×10^4/well) was prepared as stimulator cells. Cultured Cells in 48 wells or CTL clones after limiting dilution were used as responder cells. IFN-gamma ELISPOT assay and ELISA assay were performed under manufacture procedure.
(§1) The cDNA encoding an open reading frame of target genes or HLA-A02 or HLA-A24 was amplified by PCR. The PCR-amplified product was cloned into pcDNA3.1 myc-His vector (Invitrogen). The plasmids were transfected into the target cells, HLA-A02 and HLA-A24-null normal human cell line COS7 or 293T using lipofectamine (Invitrogen) according to the manufacturer's recommended procedures. Alternatively, the plasmid contained the target genes were transfected into A24-LCL by electroporation using GenePulserII (Biorad). Briefly, 2.5×10^6 A24-LCL cells were pulsed with 10 mcg prasmid at 140V and 1000 micro F. After 2 days from transfection, the transfected cells were treated with Cell dissociation solution and used as the target cells for CTL activity assay.
The established CTL line raised against these peptides were examined for their ability to recognize the target cells endogenously expressing URLC10 and HLA-A*0201. […]

A498 cancer cell line = assay: 51Cr release cytotoxicity assay; conditions: A498 expressing only HIG2
Protocol: (§2) Cytotoxic activity was evaluated by a four-hour ^51Cr release assay. The target cells were pulsed with a 20 micro g/mL concentration of peptide overnight. The target cells were labeled with 100 micro Ci of Na2^51CrO4 at 37 degrees C. for one hour, and then washed three times with RPMI1640. The target cells (1×10^4/100 micro L) and 100 micro L of effector cells at various numbers with a total volume of 200 micro L were placed into a round-bottomed 96-well microtiter plate (Corning), and cultured at 37 degrees C. in a CO2 incubator for four hours. After culturing, 100 micro L of the supernatant was collected from each well, and measured the radioactivity using a gamma counter. Spontaneous release was the radioactivity from the target cells with medium in the absence of effector cells, and maximum release was the radioactivity from the target cells with 1 M HCl.
(§3) The Percentage of specific cytotoxicity was determined by calculating as following formula: % Specific lysis=[(experimental release−spontaneous release)/(maximum release−spontaneous release)]×100. Results Enhanced CDH3, EPHA4, ECT2, HIG2, INHBB, KIF20A, KNTC2, TTK and URLC10 Expression in Cancers
(§4) Furthermore, Cytotoxic activity was examined by cytotoxicity assay according to the protocols set forth in the “Materials and Methods” section above.

Caki-1 cancer cell line = assay: 51Cr release cytotoxicity assay; conditions: Caki-1 endogenously expressing HIG2 and HLA-A02; listed as HIG2-A02-9-4
Protocol: as §2, §3, §4

[4] = test system: 293T transfected with HIG2 gene and/or HLA-A02; assay: 51Cr release cytotoxicity assay
Text: as §1
Cytotoxic activity was evaluated by a four-hour ^51Cr release assay. […] After culturing, 100 micro L of the supernatant was collected from each well, and measured the radioactivity using a gamma counter. Spontaneous release was the radioactivity from the target cells with medium in the absence of effector cells, and maximum release was the radioactivity from the target cells with 1 M HCl.
The Percentage of specific cytotoxicity was determined by calculating as following formula: % Specific lysis=[(experimental release−spontaneous release)/(maximum release−spontaneous release)]×100. […]

Substance | IFN-gamma production by IFN-gamma ELISPOT assay (peptide-pulsed T2 cells [1]) | Establishment of CTL line, specific CTL activity against the peptide-pulsed target determined by ELISA (peptide-pulsed T2 cells [2]) | Specific CTL activity against COS7, Hek293 and 293T transfected with both URLC10 and HLA-A02 [3] | Cytotoxic activity against A498 (Cr-release assay) (A498 cancer cell line) | Cytotoxic activity against Caki-1 (Cr-release assay) (Caki-1 cancer cell line) | Cytotoxic activity against 293T transfected with both HIG2 gene and HLA-A02 (Cr-release assay) [4] | Cytotoxic activity against 293T transfected only HIG2 or only HLA-A02 (Cr-release assay) ([4]; control transfectants)
SEQ ID NO: 288: HLA-A*0201 binding 10-mer peptide derived from URLC10 (LLLASIAAGL) | potent IFN-gamma production | CTL line and clones, were established | highest specific CTL activity; also recorded: high specific CTL activity | – | – | – | –
VLNLYLLGV [SEQ ID NO: 117, VLNLYLLGV] | – | – | – | did not demonstrate the cytotoxic activity | remarkably high cytotoxic effect; also recorded: very potent cytotoxic activity | very potent cytotoxic activity | did not demonstrate the cytotoxic activity
